# pKi: −log10 of the molar value.
# Target: T1, full-length ATR (Homo sapiens, UniProt Q13535)
# T1 construct: in the presence of 5 nM full-length ATR
# Assay: ATR Inhibition Assay (radioactive-phosphate incorporation)
# Type: biochemical
# Conditions: Ki(app); 5 nM full-length ATR, 10 μM ATP, 800 μM target peptide, 25° C.
# Procedure: Test compounds were screened for their ability to inhibit ATR kinase using a radioactive-phosphate incorporation assay. Assays were carried out in a mixture of 50 mM
# Tris/HCl (pH 7.5), 10 mM MgCl2 and 1 mM DTT. Final substrate concentrations were 10 μM [γ-33P]ATP (3 mCi 33 P ATP/mmol ATP, Perkin Elmer) and 800 μM target peptide ([…]). Assays were carried out at 25° C. in the presence of 5 nM full-length ATR. An assay stock buffer solution was prepared containing all of the reagents listed above, with the exception of ATP and the test compound of interest. […] The plate was pre-incubated for 10 minutes at 25° C. and the reaction initiated by addition of 15 μL [γ-33P]ATP (final concentration 10 μM).
# The reaction was stopped after […] by the addition of 30 μL 0.1M phosphoric acid containing 2 mM ATP. A multiscreen phosphocellulose filter 96-well plate (Millipore, Cat no. MAPHN0B50) was pretreated with 100 μL 0.2M phosphoric acid prior to the addition of 45 μL of the stopped assay mixture. The plate was washed with 5×200 μL 0.2M phosphoric acid.
# After removing mean background values for all of the data points, Ki(app) data were calculated from non-linear regression analysis of the initial rate data using the Prism software package (GraphPad Prism version 3.0cx for Macintosh, GraphPad Software, San Diego Calif., USA).
# T1 sequence (Q13535 whole entry): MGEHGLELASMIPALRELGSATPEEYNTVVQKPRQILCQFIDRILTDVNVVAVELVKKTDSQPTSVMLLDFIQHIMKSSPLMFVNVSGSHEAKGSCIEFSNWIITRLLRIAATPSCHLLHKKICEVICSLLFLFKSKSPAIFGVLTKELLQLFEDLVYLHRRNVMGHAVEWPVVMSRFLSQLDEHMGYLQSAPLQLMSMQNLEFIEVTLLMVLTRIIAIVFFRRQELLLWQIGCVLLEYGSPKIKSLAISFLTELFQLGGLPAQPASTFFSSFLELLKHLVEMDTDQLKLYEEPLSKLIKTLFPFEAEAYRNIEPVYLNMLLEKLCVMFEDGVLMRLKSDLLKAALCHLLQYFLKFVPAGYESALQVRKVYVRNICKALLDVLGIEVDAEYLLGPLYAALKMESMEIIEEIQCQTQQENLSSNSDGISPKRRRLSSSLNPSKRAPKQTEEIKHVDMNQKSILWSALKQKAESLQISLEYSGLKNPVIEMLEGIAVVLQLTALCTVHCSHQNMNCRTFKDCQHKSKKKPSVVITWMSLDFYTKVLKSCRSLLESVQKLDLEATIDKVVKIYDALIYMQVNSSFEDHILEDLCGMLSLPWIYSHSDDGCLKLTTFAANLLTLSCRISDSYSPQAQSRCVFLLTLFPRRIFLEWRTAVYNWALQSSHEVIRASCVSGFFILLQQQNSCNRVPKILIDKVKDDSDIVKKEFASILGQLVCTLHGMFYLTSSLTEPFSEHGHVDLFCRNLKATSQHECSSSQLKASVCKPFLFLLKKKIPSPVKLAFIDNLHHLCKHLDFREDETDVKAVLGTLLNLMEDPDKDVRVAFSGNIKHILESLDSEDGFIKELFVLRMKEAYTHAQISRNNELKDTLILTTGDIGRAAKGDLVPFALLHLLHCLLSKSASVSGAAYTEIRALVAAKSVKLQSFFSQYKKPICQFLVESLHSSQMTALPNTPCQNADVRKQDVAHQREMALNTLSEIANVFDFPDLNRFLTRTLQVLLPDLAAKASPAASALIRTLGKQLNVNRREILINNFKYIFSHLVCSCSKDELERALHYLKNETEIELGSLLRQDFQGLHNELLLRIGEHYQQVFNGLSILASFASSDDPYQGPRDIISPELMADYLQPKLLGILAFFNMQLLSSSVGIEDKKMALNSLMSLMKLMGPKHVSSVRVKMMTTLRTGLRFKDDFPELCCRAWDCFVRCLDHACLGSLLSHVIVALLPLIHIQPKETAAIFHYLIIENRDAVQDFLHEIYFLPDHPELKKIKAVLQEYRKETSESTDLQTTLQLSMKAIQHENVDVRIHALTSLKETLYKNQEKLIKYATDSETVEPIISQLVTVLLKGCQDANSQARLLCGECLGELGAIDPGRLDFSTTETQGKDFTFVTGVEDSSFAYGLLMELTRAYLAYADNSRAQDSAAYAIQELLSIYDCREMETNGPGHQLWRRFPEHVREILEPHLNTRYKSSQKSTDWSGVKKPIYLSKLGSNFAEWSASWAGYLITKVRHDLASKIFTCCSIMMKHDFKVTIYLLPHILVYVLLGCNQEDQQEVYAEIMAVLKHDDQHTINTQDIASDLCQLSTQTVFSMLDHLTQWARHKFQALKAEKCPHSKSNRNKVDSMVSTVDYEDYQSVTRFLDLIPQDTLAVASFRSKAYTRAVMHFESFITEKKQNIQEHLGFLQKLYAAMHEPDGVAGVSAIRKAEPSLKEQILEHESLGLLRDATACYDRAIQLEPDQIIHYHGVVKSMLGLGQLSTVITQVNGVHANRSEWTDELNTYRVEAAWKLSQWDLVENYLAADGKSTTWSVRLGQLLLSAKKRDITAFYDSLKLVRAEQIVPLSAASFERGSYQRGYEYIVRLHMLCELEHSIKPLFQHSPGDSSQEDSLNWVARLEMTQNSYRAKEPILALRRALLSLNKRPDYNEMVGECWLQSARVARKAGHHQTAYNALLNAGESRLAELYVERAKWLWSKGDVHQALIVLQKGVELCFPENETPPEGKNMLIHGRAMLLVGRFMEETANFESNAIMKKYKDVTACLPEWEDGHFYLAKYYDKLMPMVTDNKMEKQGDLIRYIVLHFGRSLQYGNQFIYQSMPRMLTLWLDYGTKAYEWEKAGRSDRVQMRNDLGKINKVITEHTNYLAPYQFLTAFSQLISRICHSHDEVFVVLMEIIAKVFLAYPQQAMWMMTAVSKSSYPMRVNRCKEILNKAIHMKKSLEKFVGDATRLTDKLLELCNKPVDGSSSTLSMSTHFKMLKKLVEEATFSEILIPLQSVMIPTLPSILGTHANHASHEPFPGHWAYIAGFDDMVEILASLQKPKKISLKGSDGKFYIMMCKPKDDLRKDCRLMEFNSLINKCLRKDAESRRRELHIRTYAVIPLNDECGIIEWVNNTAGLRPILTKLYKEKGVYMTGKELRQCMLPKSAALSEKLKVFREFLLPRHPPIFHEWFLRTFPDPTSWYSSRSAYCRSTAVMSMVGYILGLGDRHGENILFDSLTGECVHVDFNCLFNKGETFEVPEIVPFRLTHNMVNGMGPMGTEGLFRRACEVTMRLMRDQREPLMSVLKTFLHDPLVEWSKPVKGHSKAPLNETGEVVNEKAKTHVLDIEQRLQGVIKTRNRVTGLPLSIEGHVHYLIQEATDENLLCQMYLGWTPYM
row,Compound,pKi
1,"N#CCCN1CCN(c2cnc(N)c(-c3nnc(-c4ccccc4)o3)n2)CC1 [Compound I-298, 3-[4-[5-amino-6-(5-phenyl-1,3,4-oxadiazol-2-yl)pyrazin-2-yl]piperazin-1-yl]propanenitrile]",5.00 to 6.00
2,"COCCOCC(=O)N1CC=C(c2cnc(N)c(-c3nnc(-c4ccccc4)o3)n2)CC1 [Compound I-135, 1-(4-(5-amino-6-(5-phenyl-1,3,4-oxadiazol-2-yl)pyrazin-2-yl)-5,6-dihydropyridin-1(2H)-yl)-2-(2-methoxyethoxy)ethanone]",> 7.00
3,"CN(C)C(=O)N1CC=C(c2cnc(N)c(-c3nc4ccccc4[nH]3)n2)CC1 [Compound I-234, 4-(5-amino-6-(1H-benzo[d]imidazol-2-yl)pyrazin-2-yl)-N,N-dimethyl-5,6-dihydropyridine-1(2H)-carboxamide]",6.00 to 7.00
4,"Nc1ncc(C2=CCN(C(=O)C3CC3)CC2)nc1-c1nnc(-c2ccccc2)o1 [Compound I-285, [4-[5-amino-6-(5-phenyl-1,3,4-oxadiazol-2-yl)pyrazin-2-yl]-3,6-dihydro-2H-pyridin-1-yl]-cyclopropyl-methanone]",> 7.00
5,"Nc1ncc(N2CCN(C(=O)COc3ccccc3)CC2)nc1C(=O)Nc1ccccn1 [Compound I-143, 3-amino-6-(4-(2-phenoxyethanoyl)piperazin-1-yl)-N-(pyridin-2-yl)pyrazine-2-carboxamide]",5.00 to 6.00
6,"Nc1ncc(C2=CCN(C(=O)C3CCCC3)CC2)nc1-c1nnc(-c2ccccc2)o1 [Compound I-127, (4-(5-amino-6-(5-phenyl-1,3,4-oxadiazol-2-yl)pyrazin-2-yl)-5,6-dihydropyridin-1(2H)-yl)(cyclopentyl)methanone]",> 7.00
7,"CCS(=O)(=O)N1CC=C(c2cnc(N)c(-c3nc4cc(C(C)(C)C)ccc4[nH]3)n2)CC1 [Compound I-156, 3-(5-tert-butyl-1H-benzo[d]imidazol-2-yl)-5-(1-(ethylsulfonyl)-1,2,3,6-tetrahydropyridin-4-yl)pyrazin-2-amine]",5.00 to 6.00
8,"CCS(=O)(=O)N1CCN(c2cnc(N)c(-c3nnc(-c4ccc(CNC)cc4)o3)n2)CC1 [Compound I-325, 5-(4-Ethylsulfonylpiperazin-1-yl)-3-[5-[4-(methylaminomethyl)phenyl]-1,3,4-oxadiazol-2-yl]pyrazin-2-amine]",> 7.00
9,"Nc1ncc(N2CCN(S(=O)(=O)c3cccs3)CC2)nc1-c1nnc(-c2ccccc2)o1 [Compound I-96, 3-(5-phenyl-1,3,4-oxadiazol-2-yl)-5-(4-(thiophen-2-ylsulfonyl)piperazin-1-yl)pyrazin-2-amine]",6.00 to 7.00
10,"Nc1ncc(C2=CCN(C(=O)N3CCCCC3)CC2)nc1-c1nnc(-c2ccccc2)o1 [Compound I-236, (4-(5-amino-6-(5-phenyl-1,3,4-oxadiazol-2-yl)pyrazin-2-yl)-5,6-dihydropyridin-1(2H)-yl)(piperidin-1-yl)methanone]",> 7.00
11,"Nc1ncc(C2=CCN(C(=O)c3cccnc3)CC2)nc1-c1nnc(-c2ccccc2)o1 [Compound I-129, (4-(5-amino-6-(5-phenyl-1,3,4-oxadiazol-2-yl)pyrazin-2-yl)-5,6-dihydropyridin-1(2H)-yl)(pyridin-3-yl)methanone]",> 7.00
12,"CCS(=O)(=O)N1CC=C(c2cnc(N)c(C(=O)Nc3cnccn3)n2)CC1 [Compound I-170, 3-amino-6-(1-(ethylsulfonyl)-1,2,3,6-tetrahydropyridin-4-yl)-N-(pyrazin-2-yl)pyrazine-2-carboxamide]",6.00 to 7.00
13,"Nc1ncc(N2CCN(S(=O)(=O)c3c(F)cccc3F)CC2)nc1-c1nnc(-c2ccccc2)o1 [Compound I-202, 5-(4-(2,6-difluorophenylsulfonyl)piperazin-1-yl)-3-(5-phenyl-1,3,4-oxadiazol-2-yl)pyrazin-2-amine]",6.00 to 7.00
14,"CS(=O)(=O)N1CCN(c2cnc(N)c(-c3nc4ccccc4[nH]3)n2)CC1 [Compound I-86, 3-(1H-benzo[d]imidazol-2-yl)-5-(4-(methylsulfonyl)piperazin-1-yl)pyrazin-2-amine]",6.00 to 7.00
15,"Nc1ncc(N2CCN(C(=O)C3CCCCC3)CC2)nc1-c1nc2ccccc2[nH]1 [Compound I-112, (4-(5-amino-6-(1H-benzo[d]imidazol-2-yl)pyrazin-2-yl)piperazin-1-yl)(cyclohexyl)methanone]",6.00 to 7.00
16,"CCS(=O)(=O)N1CC2CN(c3cnc(N)c(-c4nc5ccc(C)cc5[nH]4)n3)CC2C1 (centres unmarked) [Compound I-158, 5-(5-(ethylsulfonyl)hexahydropyrrolo[3,4-c]pyrrol-2(1H)-yl)-3-(6-methyl-1H-benzo[d]imidazol-2-yl)pyrazin-2-amine]",6.00 to 7.00

row,Compound,pKi
1,"CCS(=O)(=O)N1C2CCC1CN(c1cnc(N)c(-c3nnc(-c4ccc(CNC)cc4)o3)n1)C2 [Compound I-341, 5-(8-Ethylsulfonyl-3,8-diazabicyclo[3.2.1]octan-3-yl)-3-[5-[4-(methylaminomethyl)phenyl]-1,3,4-oxadiazol-2-yl]pyrazin-2-amine]",6.00 to 7.00
2,"CCS(=O)(=O)N1CCN(c2cnc(N)c(-c3nc4ccccc4s3)n2)CC1 [Compound I-17, 3-(benzo[d]thiazol-2-yl)-5-(4-(ethylsulfonyl)piperazin-1-yl)pyrazin-2-amine]",6.00 to 7.00
3,"COCCOCC(=O)N1CCN(c2cnc(N)c(-c3nc4ccccc4[nH]3)n2)CC1 [Compound I-264, 1-(4-(5-amino-6-(1H-benzo[d]imidazol-2-yl)pyrazin-2-yl)piperazin-1-yl)-2-(2-methoxyethoxy)ethanone]",5.00 to 6.00
4,"CCC(CC)C(=O)N1CC=C(c2cnc(N)c(-c3nnc(-c4ccccc4)o3)n2)CC1 [Compound I-131, 1-(4-(5-amino-6-(5-phenyl-1,3,4-oxadiazol-2-yl)pyrazin-2-yl)-5,6-dihydropyridin-1(2H)-yl)-2-ethylbutan-1-one]",> 7.00
5,"Nc1ncc(C2=CCN(S(=O)(=O)c3ccsc3)CC2)nc1-c1nnc(-c2ccccc2)o1 [Compound I-121, 3-(5-phenyl-1,3,4-oxadiazol-2-yl)-5-(1-(thiophen-3-ylsulfonyl)-1,2,3,6-tetrahydropyridin-4-yl)pyrazin-2-amine]",> 7.00
6,"CCC(=O)NC1CC=C(c2cnc(N)c(-c3nnc(-c4ccc(CNC)cc4)o3)n2)CC1 (centres unmarked) [Compound I-367, N-(4-(5-Amino-6-(5-(4-((methylamino)methyl)phenyl)-1,3,4-oxadiazol-2-yl)pyrazin-2-yl)cyclohex-3-enyl)propionamide]",> 7.00
7,"CCS(=O)(=O)N1CC=C(c2cnc(N)c(C(=O)Nc3cc(C)ccn3)n2)CC1 [Compound I-167, 3-amino-6-(1-(ethylsulfonyl)-1,2,3,6-tetrahydropyridin-4-yl)-N-(4-methylpyridin-2-yl)pyrazine-2-carboxamide]",> 7.00
8,"CS(=O)(=O)N1CCN(c2cnc(N)c(C(=O)Nc3ccccn3)n2)CC1 [Compound I-219, 3-amino-6-(4-(methylsulfonyl)piperazin-1-yl)-N-(pyridin-2-yl)pyrazine-2-carboxamide]",6.00 to 7.00
9,CNCc1ccc(-c2nnc(-c3nc(C4CC4C(=O)N(C)CCOC)cnc3N)o2)cc1 (centres unmarked) [Compound I-377],5.00 to 6.00
10,"CNCc1ccc(-c2nnc(-c3nc(C4CC4C(=O)N4CC[C@@H](N)C4)cnc3N)o2)cc1 (stereo partly drawn) [Compound I-374, (2-(5-Amino-6-(5-(4-((methylamino)methyl)phenyl)-1,3,4-oxadiazol-2-yl)pyrazin-2-yl)cyclopropyl)((R)-3-aminopyrrolidin-1-yl)methanone]",5.00 to 6.00
11,"Nc1ncc(C2=CCN(C(=O)C3CCC3)CC2)nc1-c1nc2ccccc2[nH]1 [Compound I-200, (4-(5-amino-6-(1H-benzo[d]imidazol-2-yl)pyrazin-2-yl)-5,6-dihydropyridin-1(2H)-yl)(cyclobutyl)methanone]",> 7.00
12,"Nc1ncc(C2=CCN(C(=O)N3CCCCC3)CC2)nc1-c1nc2ccccc2[nH]1 [Compound I-249, (4-(5-amino-6-(1H-benzo[d]imidazol-2-yl)pyrazin-2-yl)-5,6-dihydropyridin-1(2H)-yl)(piperidin-1-yl)methanone]",6.00 to 7.00
13,"CCS(=O)(=O)N1CCN(c2cnc(N)c(-c3nc4ccccc4n3-c3ccccc3)n2)CC1 [Compound I-308, 5-(4-ethylsulfonylpiperazin-1-yl)-3-(1-phenylbenzimidazol-2-yl)pyrazin-2-amine]",6.00 to 7.00
14,"CNCc1ccc(-c2nnc(-c3nc(N4CCC5(CCN(C)C5=O)CC4)cnc3N)o2)cc1 [Compound I-344, 8-[5-Amino-6-[5-[4-(methylaminomethyl)phenyl]-1,3,4-oxadiazol-2-yl]pyrazin-2-yl]-2-methyl-2,8-diazaspiro[4.5]decan-1-one]",> 7.00
15,"CCS(=O)(=O)N1CC=C(c2cnc(N)c(C(=O)Nc3ccccn3)n2)CC1 [Compound I-171, 3-amino-6-(1-(ethylsulfonyl)-1,2,3,6-tetrahydropyridin-4-yl)-N-(pyridin-2-yl)pyrazine-2-carboxamide]",6.00 to 7.00
16,"CN(C)S(=O)(=O)N[C@H]1CCN(c2cnc(N)c(-c3nc4ccccc4[nH]3)n2)C1 [Compound I-85, (S)-N-(1-(5-amino-6-(1H-benzo[d]imidazol-2-yl)pyrazin-2-yl)pyrrolidin-3-yl)propane-2-N,N-dimethylsulfamide]",5.00 to 6.00
